In brackets after ≈: the same amount, converted by molar mass. Marks after values point to notes of the source that are not given here.
What follows are molecules tested on Candida albicans (ATCC no. 10231) (assay: MIC determination by broth microdilution (NCCLS), visual scoring). Conditions: Candida albicans, ATCC10231, read-out: MIC80 C. albicans.
Assay type: cell-based
Protocol: The antifungal activity of the 2,4,6-pyrimidinetrione analogs shown in Schemes 2-6 were evaluated in vitro using Candida albicans (ATCC no. 10231) and Candida glabrata (ATCC no 48435). All assays were done in accordance with NCCLS reference documents^29.
Master stock concentrations of all tested compounds were prepared to ensure that the maximum final concentration of DMSO was 1% or less. Subsequent 2-fold serial dilutions were made using sterile water to a final concentration of 1280-5.00 μg/ml. A final 10-fold dilution of each drug was made by aliquotting 0.1 mL of each drug dilution into 0.9 mL of fungal suspension in RPMI 1640 media with 10 mM HEPES buffer added (see methodology below), giving final concentrations tested in the range of 128-0.5 μg/ml.
Antifungal susceptibility studies and minimal inhibitory concentrations (MIC) values for Candida albicans (ATCC no. 10231) and Candida glabrata (ATCC no. 48435) were determined by the broth microdilution technique in accordance with NCCLS reference documents. Microdilution panels ranged from 0.5 to 128 μg/mL. All organisms were subcultured on Sabouraud agar and passaged to ensure purity and viability. The initiating inocula were prepared by picking 5-7 isolated colonies ˜1 mm in diameter from freshly prepared YM agar plates. Colonies were resuspended in sterile water, vortexed and the cell density was adjusted spectrophotometrically to the transmittance of a 0.5 McFarland standard at a wavelength of 530 nm, to yield a stock suspension of 1×10^6-5×10^6 cells/mL. The stock was allowed to hydrate for 30 minutes at room temperature. A working suspension was then made by diluting the stock 1:50 with RPMI 1640 media containing HEPES buffer. The working suspension was used for all assays. The plates were incubated at 35° C. for 48-72 hours in a humid atmosphere. Growth was scored visually. MIC values are defined as the lowest concentration of agent that prevents any discernible growth, ˜80% reduction of growth, as compared with drug-free control wells. All assays were run in parallel using either fluconazole or amphotericin B at the NCCLS recommended concentrations^29 as a drug control (Sigma-Aldrich).

Structure (SMILES)	MIC80
CN1C(=O)C(/C=N/N)C(=O)N(C)C1=O [BA117, 5-[(E)-hydrazinylidenemethyl]-1,3-dimethylpyrimidine-2,4,6-trione]	125 µg/mL (≈ 631 µM)
C/C(=N\N)C1C(=O)NC(=O)NC1=O [BA118, 5-[(1E)-1-hydrazinylideneethyl]pyrimidine-2,4,6-trione]	> 125 µg/mL
CN/N=C/C1C(=O)NC(=O)NC1=O [BA120, 5-[(E)-(2-methylhydrazinylidene)methyl]pyrimidine-2,4,6-trione]	> 125 µg/mL
CN/N=C/C1C(=O)N(C)C(=O)N(C)C1=O [BA122, 1,3-dimethyl-5-[(E)-(2-methylhydrazinylidene)methyl]pyrimidine-2,4,6-trione]	62 µg/mL (≈ 292 µM)
N/N=C/C1C(=O)NC(=O)NC1=O [BA116, 5-[(E)-hydrazinylidenemethyl]pyrimidine-2,4,6-trione]	125 µg/mL (≈ 735 µM)
C/C(=N\N)C1C(=O)N(C)C(=O)N(C)C1=O [BA119, 5-[(1E)-1-hydrazinylideneethyl]-1,3-dimethylpyrimidine-2,4,6-trione]	> 125 µg/mL
CN/N=C(\C)C1C(=O)NC(=O)NC1=O [BA121, 5-[(1E)-1-(2-methylhydrazinylidene)ethyl]pyrimidine-2,4,6-trione]	> 125 µg/mL
CN/N=C(\C)C1C(=O)N(C)C(=O)N(C)C1=O [BA123, 1,3-dimethyl-5-[(1E)-1-(2-methylhydrazinylidene)ethyl]pyrimidine-2,4,6(1H,3H,5H)-trione]	> 125 µg/mL

Same assay, conditions: Table 2, 5-Arylidene-2,4,6-pyrimidinetriones

Structure (SMILES)	MIC80 C. albicans
O=C1NC(=O)C(=CC=Cc2ccccc2)C(=O)N1 [BA42]	62 µg/mL (≈ 256 µM)

Same assay, conditions: Table 5, Schiff Bases of 5-acylpyrimidinetriones

Structure (SMILES)	MIC80 C. albicans
COc1ccc(N=C(C)C2C(=O)NC(=O)NC2=O)cc1 [BA100]	— (none of the 5-acyl-2,4,6-pyrimidinetriones, 5-alkylated pyrimidinetriones or the 5,5-dialkylated pyrimidinetriones showed antifungal activity through 125 μg/mL)
O=C1NC(=O)C(C=Nc2ccc([N+](=O)[O-])cc2)C(=O)N1 [BA101]	— (none of the 5-acyl-2,4,6-pyrimidinetriones, 5-alkylated pyrimidinetriones or the 5,5-dialkylated pyrimidinetriones showed antifungal activity through 125 μg/mL)
O=C1NC(=O)C(/C=N/n2cnnc2)C(=O)N1 [BA109]	— (none of the 5-acyl-2,4,6-pyrimidinetriones, 5-alkylated pyrimidinetriones or the 5,5-dialkylated pyrimidinetriones showed antifungal activity through 125 μg/mL)
CN1C(=O)C(C=Nc2ccc(-c3ccccc3)cc2)C(=O)N(C)C1=O [BA106]	— (none of the 5-acyl-2,4,6-pyrimidinetriones, 5-alkylated pyrimidinetriones or the 5,5-dialkylated pyrimidinetriones showed antifungal activity through 125 μg/mL)
CN1C(=O)C(/C=N/c2nnc[nH]2)C(=O)N(C)C1=O [BA108]	— (none of the 5-acyl-2,4,6-pyrimidinetriones, 5-alkylated pyrimidinetriones or the 5,5-dialkylated pyrimidinetriones showed antifungal activity through 125 μg/mL)
O=C1NC(=O)C(C=Nc2ccccn2)C(=O)N1 [BA103]	— (none of the 5-acyl-2,4,6-pyrimidinetriones, 5-alkylated pyrimidinetriones or the 5,5-dialkylated pyrimidinetriones showed antifungal activity through 125 μg/mL)
COc1ccc(N=CC2C(=O)NC(=O)NC2=O)cc1 [BA97]	— (none of the 5-acyl-2,4,6-pyrimidinetriones, 5-alkylated pyrimidinetriones or the 5,5-dialkylated pyrimidinetriones showed antifungal activity through 125 μg/mL)
O=C1NC(=O)C(/C=N/C2N=NN=N2)C(=O)N1 [BA111]	— (none of the 5-acyl-2,4,6-pyrimidinetriones, 5-alkylated pyrimidinetriones or the 5,5-dialkylated pyrimidinetriones showed antifungal activity through 125 μg/mL)
O=C1NC(=O)C(/C=N/c2nnc[nH]2)C(=O)N1 [BA107]	— (none of the 5-acyl-2,4,6-pyrimidinetriones, 5-alkylated pyrimidinetriones or the 5,5-dialkylated pyrimidinetriones showed antifungal activity through 125 μg/mL)
CN1C(=O)C(/C=N/n2cnnc2)C(=O)N(C)C1=O [BA110]	— (none of the 5-acyl-2,4,6-pyrimidinetriones, 5-alkylated pyrimidinetriones or the 5,5-dialkylated pyrimidinetriones showed antifungal activity through 125 μg/mL)
COc1ccc(N=CC2C(=O)N(C)C(=O)N(C)C2=O)cc1 [BA98]	— (none of the 5-acyl-2,4,6-pyrimidinetriones, 5-alkylated pyrimidinetriones or the 5,5-dialkylated pyrimidinetriones showed antifungal activity through 125 μg/mL)
CN1C(=O)C(C=Nc2ccc([N+](=O)[O-])cc2)C(=O)N(C)C1=O [BA102]	— (none of the 5-acyl-2,4,6-pyrimidinetriones, 5-alkylated pyrimidinetriones or the 5,5-dialkylated pyrimidinetriones showed antifungal activity through 125 μg/mL)
COc1ccc(N=C(C)C2C(=O)N(C)C(=O)N(C)C2=O)cc1 [BA99]	— (none of the 5-acyl-2,4,6-pyrimidinetriones, 5-alkylated pyrimidinetriones or the 5,5-dialkylated pyrimidinetriones showed antifungal activity through 125 μg/mL)
O=C1NC(=O)C(/C=N/c2ccc(-c3ccccc3)cc2)C(=O)N1 [BA105]	— (none of the 5-acyl-2,4,6-pyrimidinetriones, 5-alkylated pyrimidinetriones or the 5,5-dialkylated pyrimidinetriones showed antifungal activity through 125 μg/mL)

Same assay, conditions: Table 8, N-Acylhydrazones of 5-Acylpyrimidinetriones

Structure (SMILES)	MIC80 C. albicans
CC(=NNC(=O)c1ccc([N+](=O)[O-])cc1)C1C(=O)NC(=O)NC1=O [BA130]	— (none of the 5-acyl-2,4,6-pyrimidinetriones, 5-alkylated pyrimidinetriones or the 5,5-dialkylated pyrimidinetriones showed antifungal activity through 125 μg/mL)
COc1ccc(C(=O)NN=C(C)C2C(=O)NC(=O)NC2=O)cc1 [BA134]	— (none of the 5-acyl-2,4,6-pyrimidinetriones, 5-alkylated pyrimidinetriones or the 5,5-dialkylated pyrimidinetriones showed antifungal activity through 125 μg/mL)
COc1ccc(C(=O)NN=C(C)C2C(=O)N(C)C(=O)N(C)C2=O)cc1 [BA135]	— (none of the 5-acyl-2,4,6-pyrimidinetriones, 5-alkylated pyrimidinetriones or the 5,5-dialkylated pyrimidinetriones showed antifungal activity through 125 μg/mL)
COc1ccc(C(=O)N/N=C/C2C(=O)NC(=O)NC2=O)cc1 [BA132]	— (none of the 5-acyl-2,4,6-pyrimidinetriones, 5-alkylated pyrimidinetriones or the 5,5-dialkylated pyrimidinetriones showed antifungal activity through 125 μg/mL)
C/C(=N\NC(=O)c1ccccc1)C1C(=O)NC(=O)NC1=O [BA126]	— (none of the 5-acyl-2,4,6-pyrimidinetriones, 5-alkylated pyrimidinetriones or the 5,5-dialkylated pyrimidinetriones showed antifungal activity through 125 μg/mL)
CN1C(=O)C(/C=N/NC(=O)c2ccccc2)C(=O)N(C)C1=O [BA125]	— (none of the 5-acyl-2,4,6-pyrimidinetriones, 5-alkylated pyrimidinetriones or the 5,5-dialkylated pyrimidinetriones showed antifungal activity through 125 μg/mL)
CC(=NNC(=O)c1ccccc1)C1C(=O)N(C)C(=O)N(C)C1=O [BA127]	— (none of the 5-acyl-2,4,6-pyrimidinetriones, 5-alkylated pyrimidinetriones or the 5,5-dialkylated pyrimidinetriones showed antifungal activity through 125 μg/mL)

Same assay, conditions: Table 8, values marked * (no footnote in this table)

Structure (SMILES)	MIC80 C. albicans
CN1C(=O)C(/C=N/NC(=O)c2ccc([N+](=O)[O-])cc2)C(=O)N(C)C1=O [BA129]	62* μg/mL
O=C1NC(=O)C(/C=N/NC(=O)c2ccc([N+](=O)[O-])cc2)C(=O)N1 [BA128]	62* μg/mL
COc1ccc(C(=O)N/N=C/C2C(=O)N(C)C(=O)N(C)C2=O)cc1 [BA133]	62* μg/mL

Same assay, conditions: Table 9, Benzenesuifonohydrazones of 5-Acylpyrimidinetrione

Structure (SMILES)	MIC80 C. albicans
CN1C(=O)C(C=NNS(=O)(=O)c2ccccc2)C(=O)N(C)C1=O [BA137]	— (none of the 5-acyl-2,4,6-pyrimidinetriones, 5-alkylated pyrimidinetriones or the 5,5-dialkylated pyrimidinetriones showed antifungal activity through 125 μg/mL)
C/C(=N\NS(=O)(=O)c1ccc(C)cc1)C1C(=O)NC(=O)NC1=O [BA114]	— (none of the 5-acyl-2,4,6-pyrimidinetriones, 5-alkylated pyrimidinetriones or the 5,5-dialkylated pyrimidinetriones showed antifungal activity through 125 μg/mL)
C/C(=N\NS(=O)(=O)c1ccccc1)C1C(=O)NC(=O)NC1=O [BA138]	— (none of the 5-acyl-2,4,6-pyrimidinetriones, 5-alkylated pyrimidinetriones or the 5,5-dialkylated pyrimidinetriones showed antifungal activity through 125 μg/mL)
O=C1NC(=O)C(C=NNS(=O)(=O)c2ccccc2)C(=O)N1 [BA136]	— (none of the 5-acyl-2,4,6-pyrimidinetriones, 5-alkylated pyrimidinetriones or the 5,5-dialkylated pyrimidinetriones showed antifungal activity through 125 μg/mL)
C/C(=N\NS(=O)(=O)c1ccccc1)C1C(=O)N(C)C(=O)N(C)C1=O [BA139]	— (none of the 5-acyl-2,4,6-pyrimidinetriones, 5-alkylated pyrimidinetriones or the 5,5-dialkylated pyrimidinetriones showed antifungal activity through 125 μg/mL)
Cc1ccc(S(=O)(=O)N/N=C/C2C(=O)N(C)C(=O)N(C)C2=O)cc1 [BA115]	— (none of the 5-acyl-2,4,6-pyrimidinetriones, 5-alkylated pyrimidinetriones or the 5,5-dialkylated pyrimidinetriones showed antifungal activity through 125 μg/mL)

Same assay, conditions: Table 9, value marked ** (footnote not given)

Structure (SMILES)	MIC80 C. albicans
Cc1ccc(S(=O)(=O)N/N=C/C2C(=O)NC(=O)NC2=O)cc1 [BA113]	16** μg/mL

From patent publication US20160235752A1, “COMPOSITIONS, METHODS OF USE, AND METHODS OF TREATMENT” (THE UNIVERSITY OF NEW ORLEANS, priority 2013, published 2016)
